According to patent publication US20230348424A1, “HETEROCYCLIC COMPOUNDS AND METHODS OF USE” (Schrödinger, Inc., priority 2022, published 2023):

Molecular target: SOS1:KRAS (G12C) interaction (Homo sapiens (Human), UniProt Q07889)
Assay: SOS1 KRas(G12C) FRET Assay
Assay type: binding
Settings: 0.5 nM His10-SOS1 (res. 564-1049), 2.5 nM GST-KRAS G12C (res. 1-169), 2 hrs at RT
Description: Inhibition of the SOS 1:KRAS interaction was measured using purified GST-tagged KRAS (res. 1-169, G12C, purified based on Hillig, et al., Proc Natl Acad Sci USA (2019); 116(7):2551-2560) and recombinant His10-SOS1 (res. 564-1049; purified based on Hillig, et al.). The final assay was performed at 20 uL with 0.5 nM SOS1 protein and 2.5 nM KRAS protein in a buffer of PBS, 0.1% BSA, 5 mM MgCh, 0.0025% Igepal, 100 mM KF, 5 mM DTT in a white 384 square well OptiPlate (PerkinElmer, Cat. 6007290). A 2x KRAS working solution was prepared in an assay buffer containing 5 nM GST-KRAS G12C and 2 nM anti-GST-Eu(K) (Cisbio, Cat. 61GSTKLA) and pre-incubated for 15 minutes at 25° C. […] The final DMSO concentration is 0.5%. Plates were incubated at RT for 2 hrs before the FRET signal was measured using Envision at emission 665 nm and 615 nm. FRET signal was converted to percentage of protein-protein interaction using the following equation:
• C: signal with compound treatment • P: signal for positive control (DMSO) • N: signal for negative control (no SOS1 added)
IC50 and Hill coefficients were obtained using Graph Pad Prism (Graph Pad software, Inc, USA) with non-linear regression analysis.

Chain of SOS1:KRAS (G12C) interaction (Q07889 564-1049, stated change not applied): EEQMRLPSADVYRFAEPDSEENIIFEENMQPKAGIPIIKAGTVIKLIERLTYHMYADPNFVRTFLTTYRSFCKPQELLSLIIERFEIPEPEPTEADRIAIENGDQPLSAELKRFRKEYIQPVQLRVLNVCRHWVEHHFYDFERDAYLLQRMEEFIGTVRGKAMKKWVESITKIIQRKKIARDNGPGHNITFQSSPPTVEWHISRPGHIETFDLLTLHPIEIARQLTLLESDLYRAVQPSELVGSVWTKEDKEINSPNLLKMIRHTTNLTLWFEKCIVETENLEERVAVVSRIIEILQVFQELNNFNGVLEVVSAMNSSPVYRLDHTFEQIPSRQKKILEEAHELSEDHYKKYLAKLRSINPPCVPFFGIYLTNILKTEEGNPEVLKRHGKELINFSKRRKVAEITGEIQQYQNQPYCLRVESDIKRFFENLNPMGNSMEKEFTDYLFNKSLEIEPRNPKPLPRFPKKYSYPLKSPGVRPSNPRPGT

Compound	IC50
Cc1c([C@@H](C)NC(=O)c2cn(C3CCOCC3)c(=O)cc2NC2[C@@H]3C[C@H]2CN(C)C3)cccc1C(F)(F)F (single isomer, unassigned) [Example 22]	25.9 nM
Cc1c([C@@H](C)NC(=O)c2cn(C3CCOCC3)c(=O)cc2N[C@H]2[C@@H]3C[C@H]2CN(C)C3)cccc1C(F)(F)F (single isomer, unassigned) [Example 23]	47.1 nM
Cc1c([C@@H](C)NC(=O)c2cn(C3CCOCC3)c(=O)cc2N[C@@H]2[C@@H]3CC[C@H]2CN(C)C3)cccc1C(F)(F)F (single isomer, unassigned) [Example 31]	27.6 nM
Cc1c([C@@H](C)NC(=O)c2cn(C3CCOCC3)c(=O)cc2N[C@H]2[C@@H]3CC[C@H]2CN(C)C3)cccc1C(F)(F)F (single isomer, unassigned) [Example 32]	58.2 nM
Cc1c([C@@H](C)NC(=O)c2cn(C3CCOCC3)c(=O)cc2N[C@H]2CCCN(C)CC2)cccc1C(F)(F)F (single isomer, unassigned) [Example 33]	18 nM
Cc1c([C@@H](C)NC(=O)c2cn(C3CCOCC3)c(=O)cc2N[C@@H]2CCCN(C)CC2)cccc1C(F)(F)F (single isomer, unassigned) [Example 34]	22.9 nM
Cc1c([C@@H](C)NC(=O)c2cn(C3CCOCC3)c(=O)cc2N[C@@H]2C[C@@H]3CC[C@H]2N3C)cccc1C(F)(F)F (single isomer, unassigned) [Example 37]	32.9 nM
Cc1c([C@@H](C)NC(=O)c2cn(C3CCOCC3)c(=O)cc2N[C@H]2C[C@H]3CC[C@@H]2N3C)cccc1C(F)(F)F (single isomer, unassigned) [Example 38]	45.8 nM
Cc1c([C@@H](C)NC(=O)c2cn(C3CCOCC3)c(=O)cc2N[C@H]2CCN(C)C3(CC3)C2)cccc1C(F)(F)F (single isomer, unassigned) [Example 39]	43.7 nM
Cc1c([C@@H](C)NC(=O)c2cn(C3CCOCC3)c(=O)cc2N[C@@H]2CCN(C)C3(CC3)C2)cccc1C(F)(F)F (single isomer, unassigned) [Example 40]	11.8 nM
C[C@@H](NC(=O)c1cn(C2(C(F)F)CC2)c(=O)cc1N[C@@H]1CCN(C)C[C@@H]1F)c1cccc(C(F)F)c1F (single isomer, unassigned) [Example 67]	10.6 nM
C[C@@H](NC(=O)c1cn(C2(C(F)F)CC2)c(=O)cc1N[C@H]1CCN(C)C[C@H]1F)c1cccc(C(F)F)c1F (single isomer, unassigned) [Example 68]	14.3 nM
C[C@@H](NC(=O)c1cn([C@H]2C[C@@H]2C2CC2)c(=O)cc1NC1CCN(C)CC1)c1cccc(C(F)F)c1F (single isomer, unassigned) [Example 73]	13 nM
COc1ccc([C@@H](C)NC(=O)c2cn(C3(C(F)F)CC3)c(=O)cc2NC2CCN(C)CC2)c(F)c1C(F)(F)F (single isomer, unassigned) [Example 165]	7940 nM

More lines, now with the values ahead:

IC50	Compound
193 nM	COc1ccc([C@H](C)NC(=O)c2cn(C3(C(F)F)CC3)c(=O)cc2NC2CCN(C)CC2)c(F)c1C(F)(F)F (single isomer, unassigned) [Example 166]
> 10000 nM	C[C@@H](NC(=O)c1cn(C2(C(F)F)CC2)c(=O)cc1NC1CCN(C)CC1)c1ccc(F)c(C(F)(F)F)c1 (single isomer, unassigned) [Example 167]
561 nM	C[C@H](NC(=O)c1cn(C2(C(F)F)CC2)c(=O)cc1NC1CCN(C)CC1)c1ccc(F)c(C(F)(F)F)c1 (single isomer, unassigned) [Example 168]
1250 nM	Cc1cc([C@@H](C)NC(=O)c2cn(C3(C(F)F)CC3)c(=O)cc2NC2CCN(C)CC2)cc(C(F)(F)F)n1 (single isomer, unassigned) [Example 171]
> 10000 nM	Cc1cc([C@H](C)NC(=O)c2cn(C3(C(F)F)CC3)c(=O)cc2NC2CCN(C)CC2)cc(C(F)(F)F)n1 (single isomer, unassigned) [Example 172]
55.6 nM	C[C@@H](NC(=O)c1cn(C23CC(C2)C3)c(=O)cc1N[C@H]1[C@@H]2CN(C)C[C@@H]21)c1cccc(C#N)c1Cl (single isomer, unassigned) [Example 177]
> 10000 nM	C[C@H](NC(=O)c1cn(C23CC(C2)C3)c(=O)cc1N[C@H]1[C@@H]2CN(C)C[C@@H]21)c1cccc(C#N)c1Cl (single isomer, unassigned) [Example 178]
6.1 nM	C[C@@H](NC(=O)c1cn(C2(C(F)F)CC2)c(=O)cc1N[C@H]1CCCn2cncc21)c1cccc(C(F)F)c1F (single isomer, unassigned) [Example 183]
55.8 nM	C[C@@H](NC(=O)c1cn(C2(C(F)F)CC2)c(=O)cc1N[C@@H]1CCCn2cncc21)c1cccc(C(F)F)c1F (single isomer, unassigned) [Example 184]
151 nM	Cc1c(C#N)cccc1[C@@H](C)NC(=O)c1cn([C@@H]2[C@@H](C)C2(F)F)c(=O)cc1N[C@H]1[C@@H]2CN(C)C[C@@H]21 (single isomer, unassigned) [Example 193]
19.3 nM	Cc1c(C#N)cccc1[C@@H](C)NC(=O)c1cn([C@H]2[C@H](C)C2(F)F)c(=O)cc1N[C@H]1[C@@H]2CN(C)C[C@@H]21 (single isomer, unassigned) [Example 194]
5.44 nM	C[C@@H]1[C@@H](n2cc(C(=O)N[C@H](C)c3cccc(C(C)(F)F)c3F)c(N[C@H]3[C@@H]4CN(C)C[C@@H]43)cc2=O)C1(F)F (single isomer, unassigned) [Example 195]
43.2 nM	C[C@@H](NC(=O)c1cn([C@H]2[C@H](C)C2(F)F)c(=O)cc1N[C@H]1[C@@H]2CN(C)C[C@@H]21)c1cccc(C(C)(F)F)c1F (single isomer, unassigned) [Example 196]
31.7 nM	C[C@@H]1[C@@H](n2cc(C(=O)N[C@H](C)c3cccc(C(F)(F)F)c3F)c(N[C@H]3[C@@H]4CN(C)C[C@@H]43)cc2=O)C1(F)F (single isomer, unassigned) [Example 197]
3.41 nM	C[C@@H](NC(=O)c1cn([C@H]2[C@H](C)C2(F)F)c(=O)cc1N[C@H]1[C@@H]2CN(C)C[C@@H]21)c1cccc(C(F)(F)F)c1F (single isomer, unassigned) [Example 198]
10.1 nM	C[C@@H](NC(=O)c1cn([C@@H]2CC2(F)F)c(=O)cc1N[C@H]1[C@@H]2CN(C)C[C@@H]21)c1cccc(C(F)(F)F)c1F (single isomer, unassigned) [Example 199]
16.7 nM	C[C@@H](NC(=O)c1cn([C@H]2CC2(F)F)c(=O)cc1N[C@H]1[C@@H]2CN(C)C[C@@H]21)c1cccc(C(F)(F)F)c1F (single isomer, unassigned) [Example 200]
14 nM	C[C@@H](NC(=O)c1cn([C@@H]2CC2(F)F)c(=O)cc1N[C@H]1[C@@H]2CN(C)C[C@@H]21)c1cccc(C(C)(F)F)c1F (single isomer, unassigned) [Example 201]
19.5 nM	C[C@@H](NC(=O)c1cn([C@H]2CC2(F)F)c(=O)cc1N[C@H]1[C@@H]2CN(C)C[C@@H]21)c1cccc(C(C)(F)F)c1F (single isomer, unassigned) [Example 202]
4.6 nM	C[C@@H](NC(=O)c1cn(C23CC(C2)C3)c(=O)cc1N[C@H]1CCN(C)C[C@H]1F)c1cccc(C(F)F)c1F (single isomer, unassigned) [Example 203]
3.61 nM	C[C@@H](NC(=O)c1cn(C23CC(C2)C3)c(=O)cc1N[C@@H]1CCN(C)C[C@@H]1F)c1cccc(C(F)F)c1F (single isomer, unassigned) [Example 204]
